The record followed here is article PMC10477891, “Celastrol Combats Methicillin‐Resistant Staphylococcus aureus by Targeting Δ^1‐Pyrroline‐5‐Carboxylate Dehydrogenase” (Advanced Science, 2023).

Assay [1] concerns the target T1, P5CDH (Δ1-pyrroline-5-carboxylate dehydrogenase) (Staphylococcus aureus, UniProt Q2FDV3).
T1 construct: gene rocA
T1 sequence (Q2FDV3 1-514): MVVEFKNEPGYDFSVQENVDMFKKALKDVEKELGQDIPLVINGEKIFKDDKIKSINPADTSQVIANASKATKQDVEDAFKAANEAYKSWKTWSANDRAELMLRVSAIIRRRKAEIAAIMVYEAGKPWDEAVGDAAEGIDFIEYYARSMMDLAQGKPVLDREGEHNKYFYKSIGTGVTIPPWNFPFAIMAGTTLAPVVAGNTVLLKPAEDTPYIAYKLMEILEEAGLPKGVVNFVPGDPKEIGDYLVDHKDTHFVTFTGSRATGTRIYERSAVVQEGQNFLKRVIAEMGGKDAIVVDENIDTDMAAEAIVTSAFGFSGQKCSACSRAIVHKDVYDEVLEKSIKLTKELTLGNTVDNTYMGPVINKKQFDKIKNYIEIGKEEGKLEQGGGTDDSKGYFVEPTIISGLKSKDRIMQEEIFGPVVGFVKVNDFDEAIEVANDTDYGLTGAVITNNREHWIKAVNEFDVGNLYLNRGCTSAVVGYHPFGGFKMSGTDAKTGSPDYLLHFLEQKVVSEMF
As to the kind of experiment: P5CDH activity kit (FT-M52211). The assay is classed as biochemical.

In assay [2] the target is T1, P5CDH (Δ1-pyrroline-5-carboxylate dehydrogenase). Briefly: bio-layer interferometry (Octet NTA, immobilised P5CDH). The assay is classed as binding.

Turning to `CC1=C(O)C(=O)C=C2C1=CC=C1[C@@]2(C)CC[C@@]2(C)[C@@H]3C[C@](C)(C(=O)O)CC[C@]3(C)CC[C@]12C` [celastrol], the half-inhibitory concentration (IC50) (in general, the concentration at which inhibition is half-maximal) in assay [1] stood at 10.9 µM. The Kd (commonly the constant that tells how readily two partners part at equilibrium) in assay [2] came to 55 µM.
